The source of these data is patent publication US8835571B2, “Fatty acid derivative-polymer conjugate” (Sucampo AG, priority 2012, dated 2014).

This data set in a line: incorporation of unoprostone isopropyl into MPEG-hexPLA polymer micelles. Format: physicochemical. The method, then: The incorporation studies were carried out by a standard formulation protocol. Briefly, a defined amount of the provided unoprostone isopropyl ethanol solution was taken and the ethanol rapidly evaporated, the remaining compound was re-dissolved together with the MPEG-hexPLA excipient in acetone and added dropwise under sonication into water, followed by evaporation of the organic solvent and equilibration of the micelle solution overnight.
As it can be seen, for loadings up to 500 mg unoprostone isopropyl per gram MPEGhexPLA, loading efficiencies higher than 80% could be obtained by this simple procedure (FIG. 1), corresponding to 2.22 mg drug per mL formulation (FIG. 2). […] The latter formulations with a minimum of drug loss in the formulation procedure gave transparent formulations.

Regarding `CCCCCCCC(=O)CC[C@@H]1[C@@H](C/C=C\CCCC(=O)OC(C)C)[C@@H](O)C[C@H]1O` [unoprostone isopropyl, (+)-isopropyl (Z)-7-[(1R,2R,3R,5S)-3,5-dihydroxy-2-(3-oxodecyl)cyclopentyl]hept-5-enoate], the “obtained drug concentration in formulation” value (loading 500 mg per gram MPEGhexPLA (FIG. 2)) is on record as 2.22 mg drug per mL formulation. Also, under “loadings up to 300 mg/g”, the Incorporation efficiencies is on record as greater than 90% and the “obtained drug concentration in formulation” value was no more than 1.67 mg/mL. For the setting “loadings up to 500 mg unoprostone isopropyl per gram MPEGhexPLA (FIG. 1)”, the loading efficiencies entry is “higher than 80%”.
